Laboratory results from article PMC12292862 (Biomedicines, 2025).
Entries after “also recorded” stand apart in the source; their conditions may differ. Marks after values point to notes of the source that are not given here.

Legend:
COX-1 = molecular target: T1, COX-1 (Ovis aries, UniProt P05979); test: In vitro colorimetric COX (ovine) inhibitor-screening assay, COX-1; format: biochemical; details: ovine COX-1, tested at 50, 100 and 150 µg/mL
T1 construct: purchased Cayman Chemical 760111
T1 sequence (P05979 25-600): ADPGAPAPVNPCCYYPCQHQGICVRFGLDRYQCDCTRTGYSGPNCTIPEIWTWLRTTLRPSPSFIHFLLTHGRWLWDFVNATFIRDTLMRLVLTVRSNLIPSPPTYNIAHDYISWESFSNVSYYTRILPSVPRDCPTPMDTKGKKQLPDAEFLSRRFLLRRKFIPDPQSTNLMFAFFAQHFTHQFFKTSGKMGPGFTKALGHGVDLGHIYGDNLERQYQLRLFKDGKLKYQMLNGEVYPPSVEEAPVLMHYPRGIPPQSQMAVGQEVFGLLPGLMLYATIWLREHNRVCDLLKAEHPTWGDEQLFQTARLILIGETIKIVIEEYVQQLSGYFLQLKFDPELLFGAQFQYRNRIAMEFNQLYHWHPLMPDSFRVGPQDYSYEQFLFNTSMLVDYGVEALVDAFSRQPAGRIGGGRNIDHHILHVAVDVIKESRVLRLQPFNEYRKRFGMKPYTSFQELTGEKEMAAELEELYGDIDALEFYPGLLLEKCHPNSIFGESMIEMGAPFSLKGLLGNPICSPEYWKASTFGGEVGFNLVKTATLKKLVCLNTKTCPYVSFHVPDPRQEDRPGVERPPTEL
Method: The test compounds’ ability to suppress COX-1 and COX-2 was evaluated using a colorimetric COX (ovine) inhibitor-screening method (Cayman Chemical, Item Number 760111). In brief, 150 μL of assay buffer, 10 μL of heme, 10 μL of enzyme (COX-1 or COX-2), and 10 μL of compound (1 mg/mL) make up the reaction mixture. In a final volume of […], the test compounds were evaluated at doses of 50, 100, and 150 μg/mL. The cyclooxygenase peroxidase component is used in the experiment. By monitoring the appearance of oxidized N, N, […] (TMPD) at 590 nm, the peroxidase activity is measured […]. […] The following formula was used to determine the % COX inhibition: The COX inhibition activity percentage is equal to (1 − T/C ×100), where T is the inhibitor well’s absorbance and C is the starting activity’s absorbance at 100% without the inhibitor well.

Wistar rats = test: Acute toxicity pilot study (OECD 423); format: in vivo; details: rat, i.p., 200 mg/kg
Method: According to OECD guidelines (Testing of Chemical Number 423), the study was carried out. In this study, mature male Wistar rats in good health were selected. After a 24 h fast, the animals were divided into groups of six. The test compounds were injected intraperitoneally at dosages ranging from 100 mg to 2000 mg per kilogram, dissolved in 2% Tween 80 saline solutions (v/v). The animals in the control groups were given just the vehicle, which was Tween 80 in 0.9% normal saline. […] Thus, 200 mg/kg (ED 50), which is considered one-tenth of the LD 50, was chosen as the anti-inflammatory dose.

CRP = test: Serum CRP (ELISA) in carrageenan-injected rats; format: in vivo, rat; details: compounds 200 mg/kg i.p., indomethacin 10 mg/kg, mean ± SD
Method: (§1) The selective pro-inflammatory cytokines were measured quantitatively using rat-specific Enzyme-Linked Immunosorbent Assay (ELISA) kits from Thermo Scientific™ (Waltham, MA, USA) with CAT. No. ERCRP for CRP; from Elabscience with Cat. No. E-EL-R2856 for TNF-α and with Cat. No. E-EL-R0011 for IL-1α; from CUSABIO, Houston, TX, USA, with Cat. No. CSB-E04640r for IL-6; and from My BioSource Co, USA, with Cat. No. MBS825017 for IL-1β, with Cat. No. MBS753621 for rat cyclooxygenase 1, and with Cat. No. MBS266603 for rat cyclooxygenase 2. Meanwhile, an ovine COX inhibitor-screening in vitro assay (item number 760111) was obtained from Cayman Chemical (Ann Arbor, MI, USA). We purchased malondialdehyde (MDA), glutathione (GSH), and superoxide dismutase (SOD) detection kits from Nanjing Jiancheng Bio-Technology Co. Ltd. (Nanjing, China).
(§2) At the end of the experiments, the rats were subjected to anesthesia with chloroform and then sacrificed. Blood was obtained via heart puncture for biochemical analysis. Following the animals’ sacrifice, the paws were taken out, decalcified, and stored in a 10% formalin solution. To prepare the tissue samples, they were sliced into thicknesses of 5 µm. Hematoxylin and eosin dyes were used to create the histology slides, which were then examined using a photomicroscope (Meiji Techno®, Iruma, Japan) for pathological alterations. The presence of inflammation was documented. Protease/phosphatase inhibitor cocktail in cold phosphate-buffered saline (1:4) (pH 7, 0.01 mol/L) (Cat. No. PPC1010, Sigma-Aldrich) was used to homogenize each rat’s paw piece in a glass homogenizer. After filtering and centrifuging the resultant homogenate for five minutes at 5000× g, oxidative stress biomarkers like GSH, SOD, and MDA were measured. The trials were repeated three times.

IL-1β = test: Serum IL-1β (ELISA) in carrageenan-injected rats; format: in vivo, rat; details: compounds 200 mg/kg i.p., indomethacin 10 mg/kg, mean ± SD
Method: as §1, §2

malondialdehyde (MDA) = test: Paw tissue oxidative stress biomarker MDA; format: in vivo, rat; details: carrageenan rats, 200 mg/kg i.p.
Method: as §1, §2

[1] = test system: superoxide dismutase (SOD); test: Paw tissue oxidative stress biomarker SOD; format: in vivo, rat; details: carrageenan rats, 200 mg/kg i.p.
Method: as §1, §2

glutathione (GSH) = test: Paw tissue oxidative stress biomarker GSH; format: in vivo, rat; details: carrageenan rats, 200 mg/kg i.p., result in words
Method: as §1, §2

[2] = test system: rat paw tissue dermal collagen; test: Sirius Red staining of dermal collagen in paw tissue; format: in vivo; details: carrageenan-injected paw; compounds 200 mg/kg i.p., indomethacin 10 mg/kg
[3] = listed as compound 3, 200 mg/kg

Structure (SMILES)	COX-1 inhibition % (mean activity) (COX-1)	Ability to feed (Wistar rats)	Change in skin color (Wistar rats)	Death (Wistar rats)	Diarrhea (Wistar rats)	Drowsiness (Wistar rats)	Dyspnea (Wistar rats)	Micturition (Wistar rats)	Seizures (Wistar rats)	Weight loss (Wistar rats)	CRP (CRP)	IL-1β (IL-1β)	MDA level (malondialdehyde (MDA))	SOD activity [1]	GSH concentration (glutathione (GSH))	dermal collagen content and distribution (Sirius Red) [2]	other results
NC1=NC2(CCCCCC2)n2nc(C(=O)Nc3ccc(S(N)(=O)=O)cc3)nc2N1 [Compound 1, 5′-Amino-N-(4-sulfamoylphenyl). -1′H-spiro[cycloheptane-1,7′-[1,2,4]triazolo[1,5-a][1,3,5] -triazine] -2′-carboxamide]	70%	Normal	Normal	No	Present	Absent	Absent	Normal	Absent	No	4.19 ± 0.28 ^b ng/mL	64.98 ± 0.30 ^b pg/mL	notable improvements	notable improvements	notable improvements	normal collagen quantity and distribution; also recorded: normal in both quantity and organization	Death (Wistar rats; listed as compound 1, 200 mg/kg): no mortality
CC1(C)CC(=O)CC2(C1)N=C(N)Nc1nc(C(=O)Nc3ccc(S(N)(=O)=O)cc3)nn12 (stereo not drawn) [Compound 2]	69%	Normal	Normal	No	Present	Absent	Absent	Normal	Absent	No	3.02 ± 0.28 ^b ng/mL	77.98 ± 0.45 ^b pg/mL	notable improvements	notable improvements	notable improvements	normal dermal collagen; also recorded: normal appearance and distribution	Death (Wistar rats; listed as compound 2, 200 mg/kg): no mortality
NC1=NC2(c3ccccc3Cc3ccccc32)n2nc(C(=O)Nc3ccc(S(N)(=O)=O)cc3)nc2N1 [Compound 3]	70%	Normal	Normal	No	Present	Absent	Absent	Normal	Absent	No	2.20 ± 0.36 ^b ng/mL	60.38 ± 0.73 pg/mL	–	–	near-control values	normal dermal collagenous fibers without any lesion; also recorded: complete restoration of normal dermal collagen	Death (Wistar rats; [3]): no mortality; IL-1β (IL-1β; listed as C3): 60.38 ± 0.73 ^b pg/mL; MDA level (malondialdehyde (MDA); 200 mg/kg): close to normal; MDA level (malondialdehyde (MDA); [3]): 35.71 ± 0.51 nmol/g tissue; SOD activity ([1]; 200 mg/kg): near-control values; SOD activity [1, 3]: 38.48 ± 0.31 U/mg protein
